Source: ChEMBL document CHEMBL1157539, “Thousands of chemical starting points for antimalarial lead identification” (Nature, 2010)

Tested on: Plasmodium falciparum
Experiment: GSK_TCMDC: Inhibition of Plasmodium falciparum 3D7 in whole erythrocytes, using parasite LDH activity as an index of growth.
Type: functional, organism-based
Conditions: Plasmodium falciparum, 3D7

`O=C(NCCCN1CCOCC1)c1csc(Nc2ccc(Cl)c(Cl)c2)n1` and `O=C(/C=C/c1ccc(Cl)c(Cl)c1)NCCCCCCN1CCN(C(=O)Nc2ccc(OC(F)F)cc2)CC1` are within 1.5-fold of each other in XC50: 919 nM for the first, 679 nM for the second.

`CCc1cn2c3c(cc(C(=O)N[C@@H](Cc4ccccc4)[C@H](O)CNCc4ccc(C)cc4)cc13)N(C)S(=O)(=O)CC2` and `COc1cc(CNC[C@@H](O)[C@H](Cc2ccccc2)NC(=O)c2cc(OC(C)C)cc(N3CCCCS3(=O)=O)c2)cc(OC)c1` are within 1.5-fold of each other in XC50: 547 nM for the first, 590 nM for the second.

Going from `Cc1cc2c(cc1Cl)N(C(=O)Nc1cc(F)cc(-c3cncnc3)c1)CC2` to `COc1ccc2nc(-c3cc(-c4ccc(NC(C)=O)cc4)cnc3N)[nH]c2c1`, the XC50 rises from 377 nM to 1240 nM (3.3-fold).

First: COc1nc2c(CCN3CCC(NCc4ccc5c(c4)NCCO5)CC3)c(Cl)cnc2cc1F
Second: COc1ccc(CNC2CCN(C)CC2)cc1-c1ccc(S(=O)(=O)NCc2ccccc2)c(F)c1
The XC50 of the first is 4.5-fold lower: 179 nM for the first, 800 nM for the second.

Compared with `O=C(C(=O)c1ccc(Nc2ccnc3cc(-c4ccccn4)ccc23)cc1)c1ccccc1`, `O=C(Nc1cccc(-c2nn3ccccc3c2-c2ccnc(Nc3ccc(C(=O)N4CCOCC4)cc3)n2)c1)c1c(F)cccc1F` is 2.5-fold lower in XC50: 966 nM for the first, 383 nM for the second.

Going from `COc1ccc2c(=NN=Cc3ccccc3Cl)cc(C)[nH]c2c1` to `COc1ccc2[nH]c(C)cc(=NN=Cc3cc(C)ccc3O)c2c1`, the XC50 falls from 373 nM to 143 nM (2.6-fold).

Going from `CCOC(=O)CCCc1cc(NC2CCN(C)CC2)nc(Nc2ccc(OC)cc2)n1` to `CCOc1ccccc1NC(=O)Nc1ccc2c(c1)CCN(C1CCC1)CC2`, the XC50 rises from 704 nM to 1110 nM (1.6-fold).

Going from `CCN(CC)CCN(Cc1ccc(-c2ccc(C(F)(F)F)cc2)cc1)C(=O)Cn1c(CCc2cccc(F)c2F)cc(=O)c2c1CCCC2` to `C=CCOC(=O)N1CCC(CNCc2ccc(-c3ccc(-c4nc5cc(C(F)(F)F)ccc5[nH]4)cc3)cc2)C1` (configuration not stated), the XC50 falls from 866 nM to 150 nM (5.8-fold).

`COc1ccc(CN2CCC(Oc3cccc(NC(=O)c4ccc(C(F)(F)F)cc4)c3)CC2)cc1` and `Cc1ccc(C(=O)Nc2cccc(CN3CCCN(Cc4ccc(O)cc4)CC3)c2)cc1` are within 1.5-fold of each other in XC50: 743 nM for the first, 1090 nM for the second.

Going from `CCCNC(=O)C1Cc2c([nH]c3ccc(Br)cc23)C2(CCN(CCc3ccccc3)CC2)N1` (configuration not stated) to `CCCN1CCCN(Cc2cccc(NC(=O)c3ccc(-c4ccccc4)cc3)c2)CC1`, the XC50 rises from 678 nM to 1110 nM (1.6-fold).

Compared with `COc1ccc(CCNCC(O)COc2nccc3c(S(=O)(=O)N4CCCNCC4)cccc23)cc1OC` (configuration not stated), `COc1ccc(CN(C)CCCc2ccc(NC(=O)c3cccc4c(=O)c5cccc(F)c5[nH]c34)cc2)cc1OC` is 3.5-fold higher in XC50: 269 nM for the first, 937 nM for the second.

Going from `CN1CCN(c2nc(NCCNc3ccc([N+](=O)[O-])cc3)c3ccccc3n2)CC1` to `CCCCCNc1nc(Nc2ccccc2C)nc2ccccc12`, the XC50 falls from 1320 nM to 735 nM (1.8-fold).

Going from `COc1cc(Nc2nccc(N3CCC(NC(=O)c4cc5ccccc5s4)C3)n2)cc(OC)c1OC` (configuration not stated) to `N#Cc1cccc(C(=O)NC2CCN(c3ccnc(Nc4ccc(F)cc4)n3)C2)c1` (configuration not stated), the XC50 falls from 786 nM to 396 nM (2-fold).

First: CCCCCNc1nc2nc(N)nc(N)c2nc1-c1ccccc1
Second: Cc1ccc(Cc2c(C)nc3nc(N)nc(N)c3c2C)cc1
The XC50 of the first is 3.9-fold higher: 954 nM for the first, 243 nM for the second.

`N#Cc1ccc(N2CCN(Cc3cccc(-c4ccc(-c5nc6cc(C(F)(F)F)ccc6[nH]5)cc4)c3)CC2)nc1` and `O=C(NCc1cccc(F)c1)Nc1cccc(-c2ccc(-c3nc4cc(C(F)(F)F)ccc4[nH]3)cc2)c1` are within 1.5-fold of each other in XC50: 702 nM for the first, 766 nM for the second.

Compared with `Cc1cc(O)nc(NC(=N)NOCCCc2ccccc2)n1`, `COc1cc(NCCCNC(=O)c2ccc(Cl)c(Cl)c2)nc2ccccc12` is 5.5-fold lower in XC50: 760 nM for the first, 137 nM for the second.

`Cc1cccc2nc(-c3ccc(-c4ccc(CN5CCC(CO)CC5)cc4)s3)[nH]c12` and `Cc1cccc2nc(-c3ccc(-c4ccc(CNCc5cccc(N)c5)cc4)s3)[nH]c12` are within 1.5-fold of each other in XC50: 812 nM for the first, 751 nM for the second.

`CCOC(=O)c1ccc(NC(=O)Nc2cccc(-c3ccc(-c4nc5cc(C(F)(F)F)ccc5[nH]4)cc3)c2)cc1` and `CC(=O)Nc1nc(C(=O)Nc2ccc(-c3cccc(-c4nc5cc(C(F)(F)F)ccc5[nH]4)c3)cc2)cs1` are within 1.5-fold of each other in XC50: 212 nM for the first, 184 nM for the second.

Going from `COc1ccc(CNCc2ccc(-c3ccc(-c4nc5cccc(C)c5[nH]4)s3)cc2)cc1` to `Nc1cccc(CNCc2ccc(-c3ccc(-c4nc5cc(F)ccc5[nH]4)s3)cc2)c1`, the XC50 rises from 180 nM to 992 nM (5.5-fold).

`COc1c(C2CCN(CCCCNC(=O)c3ccc(-c4ccc(Cl)cc4)cc3)CC2)ccc2c1C(C)(C)CCC2(C)C` and `COc1cc2nc(N3CCC(CNC(=O)c4ccc(-c5ccc(C(=O)N(C)C)cc5)cc4)CC3)nc(N)c2cc1OC` are within 1.5-fold of each other in XC50: 777 nM for the first, 746 nM for the second.

Compared with `CC(Cc1ccc(OCCCCOc2ccccc2)cc1)NCCc1ccc(Oc2ccccc2)cc1` (configuration not stated), `CC(Cc1ccc(OCCCCOc2ccccc2)cc1)NCCCn1ccnc1` (configuration not stated) is 4.9-fold lower in XC50: 812 nM for the first, 167 nM for the second.

`Cc1ccc2[nH]c(C)cc(=NN=CC=Cc3ccccc3)c2c1` and `Cc1cc(=NN=CC=Cc2ccccc2)c2cc(F)ccc2[nH]1` are within 1.5-fold of each other in XC50: 840 nM for the first, 734 nM for the second.

`Cc1ccc2nc(N/C(N)=N/C(=O)NC3CCCCC3)nc(C)c2c1` and `Cc1ccc(NC(=O)c2ccc3ncccc3c2)cc1OC1CCN(CCC(C)C)CC1` are within 1.5-fold of each other in XC50: 624 nM for the first, 694 nM for the second.

`O=C(NCC1CN(Cc2ccc(N3CCCC3)o2)CCCO1)c1ccc2c(c1)OCO2` (configuration not stated) and `CN1CC[C@@H](Oc2cc(C(=O)NCc3ccc(Cl)c(Cl)c3)ccc2C(F)(F)F)C1` are within 1.5-fold of each other in XC50: 839 nM for the first, 1250 nM for the second.

Going from `CC(C)(C)c1ccc(-c2csc(NC(=O)CC(c3ccccc3)c3ccccc3)n2)cc1` to `C[C@H](NC(=O)[C@H](CCCCNC(=O)OC(C)(C)C)NC(=O)OC(C)(C)c1ccc(-c2ccccc2)cc1)C(=O)OCc1ccccc1`, the XC50 falls from 1150 nM to 181 nM (6.4-fold).

`Oc1ccc(Br)cc1-c1nc2ccc(Cl)cc2nc1-c1cc(Br)ccc1O` and `Cc1nc2ccccc2c(O)c1-c1ccc(Cl)cc1` are within 1.5-fold of each other in XC50: 789 nM for the first, 999 nM for the second.

`COc1cc(Cc2cnc(N)nc2N)ccc1OCc1ccc(-c2ccccc2C#N)cc1` and `CC(=O)Nc1ccc(S(=O)(=O)Nc2c(C)cc(Cc3cnc(N)nc3N)cc2C)cc1` are within 1.5-fold of each other in XC50: 940 nM for the first, 1000 nM for the second.

Compared with `CC1CN(c2cnn(Cc3ccc(NC(=O)Nc4ccc(-c5ccccc5)cc4)cc3)c(=O)c2Cl)CC(C)N1` (configuration not stated), `Cc1cccc2nc(-c3ccc(-c4ccc(NC(=O)NCc5cccc(F)c5)cc4)s3)[nH]c12` is 2.4-fold higher in XC50: 367 nM for the first, 887 nM for the second.

`Cc1nc(C)c(CC(=O)Nc2ccc(-c3cccc(-c4nc5cc(C(F)(F)F)ccc5[nH]4)c3)cc2)s1` and `O=C(Nc1ccc(-c2cccc(-c3nc4cc(C(F)(F)F)ccc4[nH]3)c2)cc1)c1csnn1` are within 1.5-fold of each other in XC50: 925 nM for the first, 802 nM for the second.

Compared with `O=C(NC1CC1)c1cnc(N2CCC(Oc3ccc(Cl)cc3)CC2)c(Cl)c1`, `O=S(=O)(NC1CCN(c2ccnc3cc(Cl)ccc23)C1)c1ccc(F)cc1` (configuration not stated) is 2.3-fold lower in XC50: 1090 nM for the first, 475 nM for the second.

`CCCN(CCC)c1nn2c(=O)c(C(=O)N3CCN(Cc4ccccc4)CC3)cnc2s1` and `O=C(Nc1cccc(CN2CCCN(Cc3ccc(O)cc3)CC2)c1)c1cc2ccccc2o1` are within 1.5-fold of each other in XC50: 999 nM for the first, 1200 nM for the second.

`CC(C)NCc1ccc(-c2cccc(-c3nc4cc(C(F)(F)F)ccc4[nH]3)c2)cc1` and `CC(C)NCc1ccc(-c2ccc(-c3nc4cc(F)ccc4[nH]3)cc2)cc1` are within 1.5-fold of each other in XC50: 262 nM for the first, 213 nM for the second.

`CCC(=O)NC(c1ccco1)c1cc(Cl)c2cccnc2c1O` (configuration not stated) and `CCc1c(C)c(C#N)c2nc3ccccc3n2c1NCc1ccco1` are within 1.5-fold of each other in XC50: 875 nM for the first, 698 nM for the second.

First: CCN1CCN(CC(O)CNC(=O)Nc2ccc(Cl)cc2)CC1 (configuration not stated)
Second: Cc1ccc(NC(C)C(=O)Nc2ccc(C#N)cc2)cc1S(=O)(=O)N1CCCCC1 (configuration not stated)
The XC50 of the first is 3.6-fold lower: 150 nM for the first, 545 nM for the second.

Compared with `N#Cc1ccccc1C(=O)N(Cc1cncn1Cc1cccc(F)c1)CC1CC1`, `O=C(Nc1ccccc1)c1nn(CCCN2CCC(N3CCCC3)CC2)cc1-c1ccc(Cl)c(Cl)c1` is 3.1-fold lower in XC50: 734 nM for the first, 240 nM for the second.

First: CC(C)C[C@H](NC(=O)c1ccc(OCCN2CCOCC2)cc1)C(=O)N[C@H](/C=N/N(C)C(=O)c1ccccc1)CCc1ccccc1
Second: O=C(NCCc1ccccc1)N(Cc1cccc(-c2ccc(CNCCc3ccccc3)cc2)c1)C1CCN(Cc2ccccc2)CC1
The XC50 of the first is 2.3-fold lower: 269 nM for the first, 613 nM for the second.

`CCCN(Cc1ccc(C)cc1)Cc1cc(=O)c2cc(Cl)ccc2[nH]1` and `CCNC(=O)c1ccc2c(c1)c(C)c(C)n2Cc1ccc(F)cc1` are within 1.5-fold of each other in XC50: 1050 nM for the first, 767 nM for the second.

Going from `COc1ccc(-c2nc(NC(=O)CS(=O)(=O)c3ccccc3)sc2C)cc1` to `COc1ccccc1NC(=O)Nc1cccc(-c2cccc(-c3nc4cccc(C)c4[nH]3)c2)c1`, the XC50 falls from 596 nM to 95.7 nM (6.2-fold).

`CNC(=O)c1c(NC(=O)c2cccs2)sc2c1CCCC2` and `CC(C)(C)c1ccc(CN2CCCCC(NC(=O)c3cc(-c4ccccc4Cl)cs3)C2)cc1` (configuration not stated) are within 1.5-fold of each other in XC50: 818 nM for the first, 1120 nM for the second.

Compared with `C[C@@H](CC1CCCCC1)OC(=O)N[C@H]1CCN(C#N)C1`, `CC[C@H]1CN2CC[C@@H]1C[C@H]2[C@H](O)c1cc(N2CCC(CO)CC2)nc2ccc(OC)cc12` is 5.4-fold lower in XC50: 870 nM for the first, 162 nM for the second.

`COc1ccc2nccc([C@@H](O)CN3CCC(c4cc(-c5ccc(Cl)cc5)[nH]n4)CC3)c2n1` and `COc1ccc2nccc([C@@H](O)CN3CCC(NS(=O)(=O)c4cc(Br)c(Br)s4)CC3)c2c1` are within 1.5-fold of each other in XC50: 737 nM for the first, 851 nM for the second.

Compared with `O=c1cc(NCCCNCc2ccc(C(F)(F)F)s2)[nH]c2ccccc12`, `O=c1cc(NCCCNCc2cc3c(Cl)cccc3s2)[nH]c2ccccc12` is 2.4-fold higher in XC50: 200 nM for the first, 474 nM for the second.

First: Cc1cc(O)c(CN(C)Cc2ccc3c(c2)OCO3)cc1C(C)C
Second: CN(C)Cc1ccc(-c2ccc3c(Nc4ccc(Cl)cc4F)ccnc3c2)o1
The XC50 of the first is 3.1-fold higher: 738 nM for the first, 241 nM for the second.

Compared with `Cc1cc2ccccc2c(CON2C(=N)N=C(N)NC2(C)C)c1C`, `Cc1cc2c3c(N)nc(N)nc3ccc2n1C` is 9.5-fold higher in XC50: 9.5 nM for the first, 90.1 nM for the second.

Compared with `OC(CNc1ccnc(Nc2cccc(Cl)c2)n1)c1cccc(C(F)(F)F)c1` (configuration not stated), `CNCCCCCCOc1ccc(CC(C)NCC(O)c2cccc(C(F)(F)F)c2)cc1` (configuration not stated) is 1.7-fold higher in XC50: 513 nM for the first, 884 nM for the second.

`CC[C@H]1CN2CC[C@@H]1C[C@H]2[C@H](O)c1cc(N2CCC(c3ccccc3)CC2)nc2ccc(OC)cc12` and `Fc1ccc2[nH]c(-c3ccc(-c4ccc(CNCC5CCCO5)cc4)cc3)nc2c1` (configuration not stated) are within 1.5-fold of each other in XC50: 346 nM for the first, 440 nM for the second.

`Brc1cc(Br)c2c(c1)C(NCCCNC1CCNc3c(Br)cc(Br)cc31)CCN2` (configuration not stated) and `O=C(Nc1ccc(C(=O)Oc2cccc3ccccc23)cc1)N[C@@H](Cc1ccc(O)cc1)C(=O)NC1CCN(Cc2ccc(O)cc2)C1` (some centres not stated) are within 1.5-fold of each other in XC50: 823 nM for the first, 906 nM for the second.

`CCCN(CCC)CCCNc1ccc(C(=O)Nc2ccc(OCC)cc2)cc1[N+](=O)[O-]` and `Nc1ncnc2cc(-c3cccc(NC(=O)Nc4ccccc4)c3)sc12` are within 1.5-fold of each other in XC50: 992 nM for the first, 705 nM for the second.

`Cc1ccc2[nH]c(NC#N)nc2c1` was tested, and the XC50 was 1150 nM.
